Source: US20030229105A1, “Treatment of autoimmune disorders” (Cyclacel Limited, priority 2002, published 2003)

Legend:
[1] = tested on: HIV-1; test: p24 antigen ELISA of supernatants from induced HIV-1 latently infected cells (ACH2, 8E5, U1); assay type: cell-based; conditions: for inhibition of HIV-1 replication (p24 in medium): ACH2, 8E5, U1 cells induced with TNF-α (10 ng/ml, 2 h), 10 μM drug, 5 days; for p24 antigen release, time course: ACH2 cells, days 2, 4, 6
Description: We chose HIV-1 stably integrated cells, lymphocytic ACH2 and 8E5 cell lines, as well as monocytic U1 cells (and their uninfected parental counterparts CEM and U937, respectively) for our initial studies, since viral transcription could be activated and scored through signals, such as Tat, TNF-α or phorbol myristate acetate (PMA) and PHA. We first activated viruses in these cells with TNF-α (10 ng/ml) at 37° C. for 2 h, followed by washing, and then we incubated cells with 10 μM concentrations of each drug. […] We next examined the effect of all three drugs on primary HIV-1 field isolates of SI and NSI strains. Activated PBMC were infected with two independent HIV-1 viral strains of SI (UG/92/029, subtype A envelope) and NSI (THA/92/001, subtype E envelope).
Five days later, the supernatants were collected, and the amount of newly synthesized HIV-1 was measured by p24 antigen assay. (B) Purified Tat (300 μg) was electroporated into ACH2, 8E5, and U1 cells and subsequently treated with various drugs for 5 days. […] Seven days later samples were collected and used for p19 gag ELISA. (E) PHA-activated PBMC (5×10^6) were infected with HIV-1 either SI (UG/92/029 Uganda strain, subtype A envelope) or NSI (THA/92/001, Thailand strain, subtype E envelope) strains. Unadsorbed viruses were washed after 6 h, and cells were cultured in fresh media with various cdk inhibitors (10 μM). Samples were collected every sixth day and used for p24 gag ELISA assay.
At days 2, 4, and 6, the supernatants were collected, and the released HIV-1 particles were measured by using a p24 antigen ELISA assay. (B) Twenty micrograms of total RNA was separated on an RNA-formaldehyde-agarose gel, transferred, and probed with full-length labeled HIV-1 genome RNA. The hybridized genomic RNA, singly spliced (structural), and doubly spliced (regulatory) RNAs were exposed and counted by using Molecular Dynamic PhosphorImager software.
Supernatants from the infected PBMC were collected and used directly for the p24 antigen assay. The p24 gag antigen level was analyzed by using the HIVAG-1 Monoclonal Antibody Kit (Abbott Laboratories, Diagnostics Division). The HTLV-1 p19 core antigen ELISA kit was from Retro-Tek (Cellular Products).

[2] = tested on: HIV-1 LTR; test: HIV-1 LTR-CAT reporter, basal transcription in CEM cells; assay type: cell-based; conditions: ca. 10 μM, 20 h
Description: We next sought to determine whether the inhibition of HIV-1 transcription, observed above, could be mediated specifically by cdk inhibitors or by general cell cycle inhibitors. To distinguish between the two possibilities, we performed transfection experiments with all three cdk inhibitors tested above and two other well-established cell cycle inhibitors, namely, hydroxyurea and nocodazole. Hydroxyurea blocks DNA replication by inhibiting ribonucleotide reductase and thus arrests cell cycle progression at the G1/S checkpoint, while nocodazole blocks at G2/M by promoting tubulin depolymerization. […] Therefore, the basal transcription of HIV-1 was inhibited by purine analogs and not general cell cycle inhibitors.
FIG. 3 discloses inhibition of HIV-1 basal and activated transcription by cdk inhibitors. […] The graphs at the bottom of the figure represent the effect of various concentrations of general cell cycle inhibitors (hydroxyurea and nocodazole) on CEM cells. (B) Inhibition of activated transcription in CEM cells was examined using transfected HIV-1 LTR-CAT, together with pcTat plasmid. (C) Experiment similar experiment to that in panel B, except that pcTat plasmid was replaced with E. coli-expressed and purified Tat protein
Lymphocyte CEM (12D7) cells were grown to mid-log phase and were processed for protein electroporation according to a previously published procedure (24). […]

CC(C)[C@H](CO)Nc1nc(Nc2cccc(Cl)c2)c2ncn(C(C)C)c2n1 [Purvalanol A]
inhibition of HIV-1 replication (p24 in medium) [1]: most effective
inhibition of HIV-1 basal transcription (CAT activity) [2]: dramatic inhibition

Roscovitine
inhibition of HIV-1 replication (p24 in medium) [1]: most effective
inhibition of HIV-1 replication (p24), Tat-treated cells ([1]; ACH2, 8E5, U1 electroporated with purified Tat, drugs for 5 days): best inhibited
p24 antigen release, time course ([1]; 1 μM): no obvious decrease of p24 was apparent
p24 antigen release, time course ([1]; 10 μM): only low levels of viral p24 antigens were detected
inhibition of HIV-1 basal transcription (CAT activity) [2]: dramatic inhibition
